# Read-outs that look alike come from different tables or passages of the source.
# Legend:
# plated rat hepatocytes = assay: In vitro uptake kinetics of gadoxetate in plated rat hepatocytes (mechanistic hepatocyte model); assay type: in vitro ADME; settings: for % passive: CLpassive,u/(CLactive,u + CLpassive,u); for CLactive,u: Vmax/Km,u; for Km: read-out: Km,u
# Protocol: Male adult Sprague-Dawley rats (Charles River, Margate, Kent, UK) were housed in groups of two in individually ventilated cages with free access to food (Chow rat and mouse diet) and fresh drinking water. The designated rat housing facility maintained a controlled temperature (20 ± 3 °C), humidity (40–70%), and 12 h light/dark cycle conditions. All animal protocols were approved by the University of Manchester review committee and adhered to the UK Home Office Animals (Scientific Procedures) Act (1986). Rats (250–300 g) were sacrificed using CO2 overdose followed by cervical dislocation in the morning of the study day. The kinetics experiment, as described below, was performed using n = 4 animals. A minimum of n = 3 was required to explore interanimal variability in kinetic parameters, with surplus hepatocytes also used from an additional animal that was part of a separate project. Primary rat hepatocytes, prepared as described below, were used to evaluate test compound cytotoxicity/effect on hepatocyte attachment (n = 3), preliminary assays to determine uptake assay conditions (n = 4), and for assays that were failed, for example, poor cell viability (n = 6 animals).
# Isolation of hepatocytes using ex vivo collagenase perfusion was performed, followed by cell count and viability assessment, as previously described.[34]−[36] Cell preparations with viability <85% were not used for experiments. Hepatocytes were seeded at 240,000 cells per well in collagen I-coated 24-well plates, and incubated for at least 2 h at 37 °C and 95% air/5% CO2 to allow cell attachment to the plate.[36]
# Uptake experiments were performed at 37 °C with duplicate incubations per condition, as previously described.[35] Uptake of gadoxetate (Primovist injection solution, Bayer, Germany) was evaluated following incubation (0.5–150 min) at nominal media concentrations of 0.01–10 mM. Extended incubation timepoints (up to 150 min) were selected based on previous publications[35] and existing in-house data to enable characterization of the steady-state intracellular concentration. Uptake of pitavastatin (Sequoia Research Products Ltd, Pangbourne, UK) (0.2 μM) in the absence and presence of a pan-inhibitor of uptake transporters, rifamycin SV (Sigma-Aldrich, Poole, UK) (100 μM), was also evaluated for 0.5–2 min as positive control for functional transporter activity. Following sample preparation including addition of internal standard (Table S1), gadoxetate and pitavastatin in cell samples, and gadoxetate in media samples, were quantified by liquid chromatography–tandem mass spectrometry (LC–MS/MS). LC–MS/MS quantification was performed using selective reaction monitoring (SRM) against calibration standards; only standards within 30% of nominal concentration were included. The protein content of plated rat hepatocytes was measured using the Pierce BCA Protein Assay Kit (Thermo Fisher Scientific, Paisley, UK).
# In vitro hepatocyte uptake (i.e., the amount of gadoxetate in cell as quantified by LC–MS/MS) (pmol) at each time point was normalized for cellularity using the measured protein content and assuming that 10^6 hepatocytes contain 1 mg protein.[34] For gadoxetate, the data from each animal were used for simultaneous estimation of in vitro kinetic parameters using a mechanistic hepatocyte model reported previously.[35] It should be noted that CLpassive,u implies nonsaturable clearance equal in both directions under experimental conditions (0.01–10 mM). [drawing 1] 1 where Km,u represents the unbound Michaelis constant (μM); Vmax the maximum transport rate (pmol/min/10^6 cells); and fu,cell the fraction unbound in cell and nonsaturable, bidirectional clearance (CLpassive,u; μL/min/10^6 cells). ccell and cmedium represent concentrations in cell and medium compartments, respectively, and Vcell represents the cell volume.
# Intracellular concentrations were calculated assuming a hepatocyte cell volume of 3.9 μL/10^6 cells.[35] […]
# [1] = renal clearance calculated as CLtotal × fe, rat weight 0.25 kg; fixed literature value; cited from earlier work
smiles,measurement,setting,value
CCOc1ccc(C[C@@H](CN(CCN(CC(=O)[O-])CC(=O)[O-])CC(=O)[O-])N(CC(=O)[O-])CC(=O)[O-])cc1.[Gd+3].[H+].[H+] [gadoxetate],maximum % active,"plated rat hepatocytes; CLactive,u/(CLactive,u + CLpassive,u), animal 1",97%
same,maximum % active,"plated rat hepatocytes; CLactive,u/(CLactive,u + CLpassive,u), animal 2",94%
same,maximum % active,"plated rat hepatocytes; CLactive,u/(CLactive,u + CLpassive,u), animal 3",91%
same,maximum % active,"plated rat hepatocytes; CLactive,u/(CLactive,u + CLpassive,u), animal 4",94%
same,% passive,plated rat hepatocytes; animal 1,3%
same,% passive,plated rat hepatocytes; animal 2,6%
same,% passive,plated rat hepatocytes; animal 3,9%
same,% passive,plated rat hepatocytes; animal 4,6%
same,% passive,plated rat hepatocytes; average of n = 4 animals,6%
same,"CLactive,u",plated rat hepatocytes; animal 1,3.07 μL/min/10^6 cells
same,"CLactive,u",plated rat hepatocytes; animal 2,3.20 μL/min/10^6 cells
same,"CLactive,u",plated rat hepatocytes; animal 3,2.78 μL/min/10^6 cells
same,"CLactive,u",plated rat hepatocytes; animal 4,3.20 μL/min/10^6 cells
same,"CLactive,u",plated rat hepatocytes; average of n = 4 animals,3.06 μL/min/10^6 cells
same,"CLpassive,u",plated rat hepatocytes; animal 1,0.091 μL/min/10^6 cells
same,Vmax,plated rat hepatocytes; animal 1,350.4 pmol/min/10^6 cells
same,Km,plated rat hepatocytes; animal 1,114 µM
same,"CLpassive,u",plated rat hepatocytes; animal 2,0.202 μL/min/10^6 cells
same,Vmax,plated rat hepatocytes; animal 2,370.9 pmol/min/10^6 cells
same,Km,plated rat hepatocytes; animal 2,116 µM
same,"CLpassive,u",plated rat hepatocytes; animal 3,0.274 μL/min/10^6 cells
same,Vmax,plated rat hepatocytes; animal 3,221.7 pmol/min/10^6 cells
same,Km,plated rat hepatocytes; animal 3,79.8 µM
same,"CLpassive,u",plated rat hepatocytes; animal 4,0.203 μL/min/10^6 cells
same,Vmax,plated rat hepatocytes; animal 4,368.8 pmol/min/10^6 cells
same,Km,plated rat hepatocytes; animal 4,115 µM
same,"CLpassive,u",plated rat hepatocytes; average of n = 4 animals,0.193 μL/min/10^6 cells
same,Vmax,plated rat hepatocytes; average of n = 4 animals,327.95 pmol/min/10^6 cells
same,Km,plated rat hepatocytes; average of n = 4 animals (CV %),106 µM
same,maximum % active,"plated rat hepatocytes; contribution of active saturable uptake to total uptake, average of n = 4 animals",94%
same,"fu,liv,cell","plated rat hepatocytes; fraction unbound in cell (fu,cell), average of n = 4 animals (CV %)",0.648
same,"fu,liv,cell","plated rat hepatocytes; fraction unbound in cell (fu,cell), average of n = 4 animals (CV %), listed as Gadoxetate",0.65 (24%)
same,"fu,liv,cell","plated rat hepatocytes; fraction unbound in cell, animal 1",0.759
same,"fu,liv,cell","plated rat hepatocytes; fraction unbound in cell, animal 2",0.709
same,"fu,liv,cell","plated rat hepatocytes; fraction unbound in cell, animal 3",0.418
same,"fu,liv,cell","plated rat hepatocytes; fraction unbound in cell, animal 4",0.704
same,CLr,[1],0.17 L/h

# — paper PMC8397403, “Physiologically Based Pharmacokinetic Modeling of Transporter-Mediated Hepatic Disposition of Imaging Biomarker Gadoxetate in Rats” (Molecular Pharmaceutics, 2021)
